Test results: patent US20210115104A1, “AMYLIN ANALOGUES” (Zealand Pharma A/S, priority 2015, published 2021)
*1 amine or outer side, *2 acyl side, *3 side chain or, on linkers, in order; H or OH if unused. Where a SMILES comes first, the peptide text is derived from it. Bridges are numbered along the chain shown (N, C = ends). [ ]: non-standard residue; d: D form. The star is where a group is joined. C20 diacid = O=C(O)CCCCCCCCCCCCCCCCCCC(=O)*; γGlu = O=C(O)[C@H](CCC(=O)[*:2])N[*:1]; Hyp = O=C(O)[C@@H]1C[C@@H](O)CN1; NMeI = CC[C@H](C)[C@H](NC)C(=O)O; Sar = CNCC(=O)O

Columns and labels:
[1] = biological target: T1, human calcitonin receptor (hCTR2) (Homo sapiens, UniProt P30988); test: hCTR2 cAMP assay (AlphaScreen) in COS7 cells; format: cell-based; details: cAMP induction, COS7 cells expressing hCTR2; Table 1; read-out: hCTR2 EC50
T1 construct: expressed in transfected cells
T1 sequence (P30988 25-474): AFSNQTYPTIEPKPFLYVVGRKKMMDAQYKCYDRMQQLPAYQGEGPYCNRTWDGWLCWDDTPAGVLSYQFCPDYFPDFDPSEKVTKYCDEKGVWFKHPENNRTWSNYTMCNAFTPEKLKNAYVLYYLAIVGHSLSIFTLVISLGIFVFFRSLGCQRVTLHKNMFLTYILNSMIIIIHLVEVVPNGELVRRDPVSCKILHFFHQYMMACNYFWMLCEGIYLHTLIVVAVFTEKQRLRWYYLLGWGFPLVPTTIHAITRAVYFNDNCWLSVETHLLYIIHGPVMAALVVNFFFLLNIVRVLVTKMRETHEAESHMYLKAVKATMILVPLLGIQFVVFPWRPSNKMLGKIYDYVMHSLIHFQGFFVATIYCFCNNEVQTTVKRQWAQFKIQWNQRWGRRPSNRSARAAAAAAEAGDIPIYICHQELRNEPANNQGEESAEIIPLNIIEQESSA
Procedure, shortened: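 Stable hCTR2 clone in RAMP-naïve COS7 cells stimulated 15 min at 37 °C with increasing peptide concentrations in Tyrode buffer pH 7.4 containing IBMX and 0.1% casein. cAMP in lysates measured by AlphaScreen; EC50 from 4-parameter logistic fit.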

[2] = Assessment of chemical stability (RP-HPLC normalized purity); format: physicochemical; details: 7 days, 40° C., Table 1; for Normalized purity after 7 days, 40° C., pH 4: pH 4, 0.2 mg/ml; for Normalized purity after 7 days, 40° C., pH 6: pH 6, 0.2 mg/ml; for Normalized purity after 7 days, 40° C., pH 7.5: pH 7.5, 0.2 mg/ml; for Normalized purity after 7 days, 40° C., pH 9: pH 9, 0.2 mg/ml
Procedure, shortened: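 Peptides at 0.2 mg/ml in water adjusted to pH 4, 6, 7.5 or 9, incubated at 40° C for 7 days. Main-peak area-% by RP-HPLC (C8 ammonium formate or C18 TFA gradient, UV 220 nm), normalized to T=0 as 100.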

[3] = biological target: T2, human amylin receptor 3 (hAMYR3), hCTR2 co-expressed with hRAMP3 (Homo sapiens, UniProt O60896+P30988); test: hAMYR3 cAMP assay (AlphaScreen) in COS7 cells; format: cell-based; details: cAMP induction, COS7 cells expressing hAMYR3; Table 1; read-out: hAMYR3 EC50
T2 construct: expressed in transfected cells
T2 sequence (P30988 25-474): T1 sequence (P30988 25-474)
T2 sequence (O60896 24-148 partner): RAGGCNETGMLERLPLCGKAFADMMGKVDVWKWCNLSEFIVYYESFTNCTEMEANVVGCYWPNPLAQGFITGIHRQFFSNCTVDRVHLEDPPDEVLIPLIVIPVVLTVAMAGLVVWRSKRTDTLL
Procedure, shortened: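 Stable COS7 clone co-expressing hCTR2 and hRAMP3 was exposed to increasing peptide concentrations in Tyrode buffer (pH 7.4) with 100 µM IBMX and 0.1% casein for 15 min at 37 °C. Lysate cAMP was measured by AlphaScreen; EC50 came from 4-parameter logistic fitting.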

[4] = Assessment of physical stability (Thioflavin T fibrillation); format: physicochemical; parameters: key: FND = fibrillation not detected; FD = fibrillation detected; details: 1 mg/ml, 40° C., ThT; for Fibrillation pH 4.0 (Ac): 50 mM acetate buffer pH 4.0, 96 hours; for Fibrillation pH 7.0 (His): 50 mM histidine buffer pH 7.0, 96 hours; for Fibrillation pH 7.0 (Phos.): 50 mM phosphate buffer pH 7.0, 96 hours
Procedure, shortened: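 1 mg/ml peptide with 40 μM ThT in 50 mM phosphate pH 7.0, 50 mM histidine pH 7.0 or 50 mM acetate pH 4.0, in triplicate. Fluorescence read every 10 min after 300 s agitation over 96 h at 40 °C. Lag-time (h) is the intersection of linear fits to stable and growth phases.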

EC50 [1]	Normalized purity after 7 days, 40° C., pH 4 [2]	Normalized purity after 7 days, 40° C., pH 6 [2]	Normalized purity after 7 days, 40° C., pH 7.5 [2]	Normalized purity after 7 days, 40° C., pH 9 [2]	EC50 [3]	Fibrillation pH 4.0 (Ac) [4]	Fibrillation pH 7.0 (His) [4]	Fibrillation pH 7.0 (Phos.) [4]	Compound
0.08 nM	A (A = >90%)	A (A = >90%)	B (B = 70-90%)	B (B = 70-90%)	0.14 nM	FND	FND	FND	CC[C@H](C)[C@@H](C(=O)N[C@@H](CC(C)C)C(=O)N[C@@H](CO)C(=O)N[C@@H](CO)C(=O)N[C@H](C(=O)N[C@@H](CCC(=O)O)C(=O)N[C@H](C(=O)NCC(=O)N[C@@H](CO)C(=O)N[C@@H](CC(N)=O)C(=O)N[C@H](C(=O)N1C[C@H](O)C[C@H]1C(N)=O)[C@@H](C)O)C(C)C)[C@@H](C)O)N(C)C(=O)[C@H](C)NC(=O)CN(C)C(=O)[C@H](Cc1ccccc1)NC(=O)[C@H](CO)NC(=O)[C@H](CO)NC(=O)[C@H](CCCNC(=N)N)NC(=O)[C@H](CCC(N)=O)NC(=O)[C@H](CC(C)C)NC(=O)[C@H](Cc1ccccc1)NC(=O)[C@H](CC(=O)O)NC(=O)[C@H](C)NC(=O)[C@H](CC(C)C)NC(=O)[C@H](CCCNC(=N)N)NC(=O)[C@H](CCC(=O)O)NC(=O)[C@@H](NC(=O)[C@H](C)NC(=O)[C@@H]1CSSC[C@H](NC(=O)[C@H](CCCNC(=N)N)NC(=O)CC[C@H](NC(=O)CCCCCCCCCCCCCCCCCCC(=O)O)C(=O)O)C(=O)NCC(=O)N[C@@H]([C@@H](C)O)C(=O)N[C@@H](C)C(=O)N[C@@H]([C@@H](C)O)C(=O)N1)[C@@H](C)O [Compound 54, [19CD]-isoGlu-R-C( )-GTAT-C( )-ATERLADFLQRSSF-Gly(Me)-A-Ile(Me)-LSSTEVGSNT-Hyp-NH2] ({C20 diacid-γGlu}-RCGTATCATERLADFLQRSSF[Sar]A[NMeI]LSSTEVGSNT[Hyp]-NH2; disulfide 2-7)
0.06 nM	A (A = >90%)	A (A = >90%)	A (A = >90%)	B (B = 70-90%)	0.08 nM	FND	FND	FND	CC[C@H](C)[C@@H](C(=O)N[C@@H](CC(C)C)C(=O)N[C@@H](CO)C(=O)N[C@@H](CO)C(=O)N[C@H](C(=O)N[C@@H](CCC(=O)O)C(=O)N[C@H](C(=O)NCC(=O)N[C@@H](CO)C(=O)N[C@@H](CC(N)=O)C(=O)N[C@H](C(=O)N1C[C@H](O)C[C@H]1C(N)=O)[C@@H](C)O)C(C)C)[C@@H](C)O)N(C)C(=O)[C@H](C)NC(=O)CN(C)C(=O)[C@H](Cc1ccccc1)NC(=O)[C@H](CO)NC(=O)[C@H](CO)NC(=O)[C@H](CCCNC(=N)N)NC(=O)[C@H](CCC(N)=O)NC(=O)[C@H](CC(C)C)NC(=O)[C@H](Cc1ccccc1)NC(=O)[C@H](Cc1c[nH]cn1)NC(=O)[C@H](C)NC(=O)[C@H](CC(C)C)NC(=O)[C@H](CCCNC(=N)N)NC(=O)[C@H](CCC(=O)O)NC(=O)[C@@H](NC(=O)[C@H](C)NC(=O)[C@@H]1CSSC[C@H](NC(=O)[C@H](CCCNC(=N)N)NC(=O)CC[C@H](NC(=O)CCCCCCCCCCCCCCCCCCC(=O)O)C(=O)O)C(=O)N[C@@H](CC(N)=O)C(=O)N[C@@H]([C@@H](C)O)C(=O)N[C@@H](C)C(=O)N[C@@H]([C@@H](C)O)C(=O)N1)[C@@H](C)O [Compound 56, [19CD]-isoGlu-R-C( )-NTAT-C( )-ATERLAHFLQRSSF-Gly(Me)-A-Ile(Me)-LSSTEVGSNT-Hyp-NH2] ({C20 diacid-γGlu}-RCNTATCATERLAHFLQRSSF[Sar]A[NMeI]LSSTEVGSNT[Hyp]-NH2; disulfide 2-7)
0.03 nM	A (A = >90%)	B (B = 70-90%)	C (C = <70%)	B (B = 70-90%)	0.11 nM	FND	FD	FD	CC[C@H](C)[C@@H](C(=O)N[C@@H](CC(C)C)C(=O)N[C@@H](CO)C(=O)N[C@@H](CO)C(=O)N[C@H](C(=O)N[C@@H](CC(=O)O)C(=O)N[C@H](C(=O)NCC(=O)N[C@@H](CO)C(=O)N[C@@H](CC(N)=O)C(=O)N[C@H](C(=O)N1C[C@H](O)C[C@H]1C(N)=O)[C@@H](C)O)C(C)C)[C@@H](C)O)N(C)C(=O)[C@H](C)NC(=O)CN(C)C(=O)[C@H](Cc1ccccc1)NC(=O)[C@H](CO)NC(=O)[C@H](CO)NC(=O)[C@H](CCCNC(=N)N)NC(=O)[C@H](CCC(N)=O)NC(=O)[C@H](CC(C)C)NC(=O)[C@H](Cc1ccccc1)NC(=O)[C@H](Cc1c[nH]cn1)NC(=O)[C@H](C)NC(=O)[C@H](CC(C)C)NC(=O)[C@H](CCCNC(=N)N)NC(=O)[C@H](CC(=O)O)NC(=O)[C@@H](NC(=O)[C@H](C)NC(=O)[C@@H]1CSSC[C@H](NC(=O)[C@H](CCCNC(=N)N)NC(=O)CC[C@H](NC(=O)CCCCCCCCCCCCCCCCCCC(=O)O)C(=O)O)C(=O)N2CCC[C@H]2C(=O)N[C@@H]([C@@H](C)O)C(=O)N[C@@H](C)C(=O)N[C@@H]([C@@H](C)O)C(=O)N1)[C@@H](C)O [Compound 59, [19CD]-isoGlu-R-C( )-PTAT-C( )-ATDRLAHFLQRSSF-Gly(Me)-A-Ile(Me)-LSSTDVGSNT-Hyp-NH2] ({C20 diacid-γGlu}-RCPTATCATDRLAHFLQRSSF[Sar]A[NMeI]LSSTDVGSNT[Hyp]-NH2; disulfide 2-7)
0.08 nM	A (A = >90%)	A (A = >90%)	A (A = >90%)	B (B = 70-90%)	0.09 nM	FND	FND	FND	CC[C@H](C)[C@@H](C(=O)N[C@@H](CC(C)C)C(=O)N[C@@H](CO)C(=O)N[C@@H](CO)C(=O)N[C@H](C(=O)N[C@@H](CCC(=O)O)C(=O)N[C@H](C(=O)NCC(=O)N[C@@H](CO)C(=O)N[C@@H](CC(=O)O)C(=O)N[C@H](C(=O)N1C[C@H](O)C[C@H]1C(N)=O)[C@@H](C)O)C(C)C)[C@@H](C)O)N(C)C(=O)[C@H](C)NC(=O)CN(C)C(=O)[C@H](Cc1ccccc1)NC(=O)[C@H](CO)NC(=O)[C@H](CO)NC(=O)[C@H](CCCNC(=N)N)NC(=O)[C@H](CCC(N)=O)NC(=O)[C@H](CC(C)C)NC(=O)[C@H](Cc1ccccc1)NC(=O)[C@H](Cc1c[nH]cn1)NC(=O)[C@H](C)NC(=O)[C@H](CC(C)C)NC(=O)[C@H](CCCNC(=N)N)NC(=O)[C@H](CCC(=O)O)NC(=O)[C@@H](NC(=O)[C@H](C)NC(=O)[C@@H]1CSSC[C@H](NC(=O)[C@H](CCCNC(=N)N)NC(=O)CC[C@H](NC(=O)CCCCCCCCCCCCCCCCCCC(=O)O)C(=O)O)C(=O)N[C@@H](CC(N)=O)C(=O)N[C@@H]([C@@H](C)O)C(=O)N[C@@H](C)C(=O)N[C@@H]([C@@H](C)O)C(=O)N1)[C@@H](C)O [Compound 60, [19CD]-isoGlu-R-C( )-NTAT-C( )-ATERLAHFLQRSSF-Gly(Me)-A-Ile(Me)-LSSTEVGSDT-Hyp-NH2] ({C20 diacid-γGlu}-RCNTATCATERLAHFLQRSSF[Sar]A[NMeI]LSSTEVGSDT[Hyp]-NH2; disulfide 2-7)
